Results as given in publication doi:10.1101/2023.10.01.560353v1 (bioRxiv, 2023).
≈ marks a conversion by molar mass, not a printed value. Peptide text beside a SMILES is read from it.

Tests used:
[1] = system: 11 clinically relevant bacterial pathogens; test: MIC over the panel of pathogens; format: cell-based; details: Table S17; lowest MIC over the strains tested
A. baumannii ATCC19606 = test: Outer membrane permeabilization, NPN uptake; format: cell-based, Acinetobacter baumannii; details: peptide at its MIC; polymyxin B as positive control; three replicates
A. baumannii ATCC 19606 [2] = test: Neutropenic thigh infection mouse model; format: in vivo, CD-1 mice; details: single intraperitoneal dose at MIC, n = 6
A. baumannii ATCC 19606 [3] = test: MIC, broth microdilution; format: cell-based, Acinetobacter baumannii; details: broth microdilution in LB, 20 h at 37 °C, OD600; mean of three replicates

| Compound | MIC (lowest MIC value obtained in the antimicrobial activity assays) [1] [mM] | outer membrane permeabilization (NPN uptake) (A. baumannii ATCC19606) | reduction of the bacterial load two days post-treatment (A. baumannii ATCC 19606 [2]) | Minimal Inhibitory Concentration: A. baumannii ATCC19606 (A. baumannii ATCC 19606 [3]) [µmol/L] | reduction of the bacterial load four days post-treatment (A. baumannii ATCC 19606 [2]) |
| --- | --- | --- | --- | --- | --- |
| CC[C@H](C)[C@H](NC(=O)[C@H](CO)NC(=O)CNC(=O)[C@H](CC(C)C)NC(=O)[C@H](CC(C)C)NC(=O)[C@H](CC(C)C)NC(=O)[C@H](CCCNC(=N)N)NC(=O)[C@H](CCCCN)NC(=O)[C@@H](NC(=O)[C@H](CO)NC(=O)[C@H](CC(N)=O)NC(=O)[C@@H](NC(=O)[C@H](CC(C)C)NC(=O)[C@@H](N)CC(C)C)[C@@H](C)CC)[C@@H](C)CC)C(=O)N[C@@H](CC(C)C)C(=O)O [Arctodutin-1] (H-LLINSIKRLLLGSIL-OH) | 2000 (≈ 3330 mg/mL) | permeabilized the outer membrane |  |  |  |
| polymyxin B [reference compound] |  |  | 4-5 orders of magnitude |  |  |
| CC[C@H](C)[C@H](NC(=O)[C@H](CO)NC(=O)[C@H](CCCNC(=N)N)NC(=O)[C@H](C)NC(=O)[C@H](Cc1c[nH]cn1)NC(=O)[C@H](CC(C)C)NC(=O)[C@H](CS)NC(=O)[C@H](C)NC(=O)[C@@H](N)CCCNC(=N)N)C(=O)N[C@@H](C)C(=O)N[C@@H](CCCNC(=N)N)C(=O)N[C@@H](CC(C)C)C(=O)N[C@@H](Cc1c[nH]cn1)C(=O)N[C@@H](CCCCN)C(=O)N[C@@H](CCCNC(=N)N)C(=O)N[C@@H](Cc1c[nH]c2ccccc12)C(=O)N[C@@H](CCCNC(=N)N)C(=O)N1CCC[C@H]1C(=O)N[C@H](C(=O)N[C@@H](Cc1c[nH]cn1)C(=O)N[C@@H](CCC(N)=O)C(=O)NCC(=O)N[C@@H](CC(C)C)C(=O)NCC(=O)N[C@@H](CC(C)C)C(=O)N[C@@H](CCCCN)C(=O)O)C(C)C [Mammuthusin-2] (H-RACLHARSIARLHKRWRPVHQGLGLK-OH) | 32000 (≈ 97900 mg/mL) |  |  | 32 | 3-4 orders of magnitude |
| CC[C@H](C)[C@H](NC(=O)[C@@H](N)CC(C)C)C(=O)N[C@H](C(=O)N[C@@H](CS)C(=O)N[C@@H](Cc1ccccc1)C(=O)N[C@@H](Cc1ccccc1)C(=O)N[C@@H](CCCNC(=N)N)C(=O)N[C@@H](CCC(N)=O)C(=O)N[C@@H](CC(C)C)C(=O)N[C@@H](CCCCN)C(=O)N[C@@H](Cc1ccccc1)C(=O)N[C@@H](Cc1c[nH]cn1)C(=O)N[C@@H](Cc1ccccc1)C(=O)O)C(C)C [Megalocerin-1] (H-LIVCFFRQLKFHF-OH) | 8000 (≈ 13600 mg/mL) |  |  | 8 |  |
| CC[C@H](C)[C@H](N)C(=O)N[C@@H](CC(C)C)C(=O)N[C@H](C(=O)N[C@@H](CC(C)C)C(=O)N[C@@H](Cc1ccccc1)C(=O)N[C@H](C(=O)N[C@H](C(=O)N[C@@H](Cc1ccccc1)C(=O)N[C@@H](CCC(N)=O)C(=O)N[C@@H](CC(C)C)C(=O)N[C@@H](CCCCN)C(=O)N[C@H](C(=O)N[C@@H](CO)C(=O)N[C@@H](CCCCN)C(=O)N[C@@H](CC(C)C)C(=O)O)[C@@H](C)CC)[C@@H](C)CC)[C@@H](C)CC)[C@@H](C)O [Paleopropin-2] (H-ILTLFIIFQLKISKL-OH) | 16000 (≈ 28600 mg/mL) |  |  |  |  |
| CC(C)C[C@H](NC(=O)CNC(=O)[C@H](CCCNC(=N)N)NC(=O)[C@H](CCCCN)NC(=O)[C@H](CCCNC(=N)N)NC(=O)[C@@H](N)CCCCN)C(=O)N[C@@H](CCCCN)C(=O)N[C@@H](CC(C)C)C(=O)N[C@@H](C)C(=O)N[C@H](C(=O)N[C@@H](C)C(=O)N[C@@H](CC(C)C)C(=O)N[C@@H](CO)C(=O)N[C@@H](CC(C)C)C(=O)N[C@@H](CC(N)=O)C(=O)N[C@@H](CC(N)=O)C(=O)N[C@@H](CCCCN)C(=O)N[C@@H](Cc1ccccc1)C(=O)O)[C@@H](C)O [Mylodonin-2] (H-KRKRGLKLATALSLNNKF-OH) | 32000 (≈ 65900 mg/mL) |  |  | 64 |  |
| CC[C@H](C)[C@H](N)C(=O)N[C@@H](Cc1ccccc1)C(=O)N[C@@H](CC(C)C)C(=O)N[C@@H](Cc1c[nH]cn1)C(=O)N[C@@H](CC(C)C)C(=O)N[C@@H](CCCCN)C(=O)N[C@H](C(=O)N[C@@H](CC(C)C)C(=O)N[C@@H](CCCCN)C(=O)N[C@H](C(=O)N[C@H](C(=O)N[C@@H](CCCNC(=N)N)C(=O)N[C@@H](CC(C)C)C(=O)N[C@@H](CC(C)C)C(=O)O)[C@@H](C)CC)[C@@H](C)CC)[C@@H](C)CC [Elephasin-2] (H-IFLHLKILKIIRLL-OH) | 1000 (≈ 1730 mg/mL) |  |  | 1 | 3-4 orders of magnitude |
| CC[C@H](C)[C@H](NC(=O)[C@H](Cc1ccccc1)NC(=O)[C@@H](N)CCCCN)C(=O)N[C@@H](CC(C)C)C(=O)N[C@@H](CC(N)=O)C(=O)N[C@@H](Cc1ccccc1)C(=O)N[C@@H](CCCCN)C(=O)N[C@H](C(=O)N1CCC[C@H]1C(=O)N[C@H](C(=O)N[C@@H](CO)C(=O)N[C@@H](Cc1ccccc1)C(=O)N[C@@H](CCCCN)C(=O)O)[C@@H](C)CC)[C@@H](C)CC [Pinguinusin-1] (H-KFILNFKIPISFK-OH) | 4000 (≈ 6380 mg/mL) |  |  |  |  |
| CC[C@H](C)[C@H](N)C(=O)N[C@@H](CO)C(=O)N[C@@H](CC(C)C)C(=O)N[C@@H](Cc1ccccc1)C(=O)N[C@H](C(=O)N[C@@H](CCCNC(=N)N)C(=O)N1CCC[C@H]1C(=O)N[C@@H](CC(C)C)C(=O)N[C@@H](C)C(=O)N[C@@H](CC(C)C)C(=O)NCC(=O)N[C@H](C(=O)N[C@@H](CCCNC(=N)N)C(=O)N[C@@H](CC(C)C)C(=O)O)C(C)C)[C@@H](C)CC [Psephotellin-1] (H-ISLFIRPLALGVRL-OH) | 16000 (≈ 25100 mg/mL) | permeabilized the outer membrane |  |  |  |
| CC[C@H](C)[C@H](NC(=O)[C@H](CCCCN)NC(=O)[C@H](CCCCN)NC(=O)[C@H](Cc1ccccc1)NC(=O)[C@H](Cc1ccccc1)NC(=O)[C@@H](NC(=O)[C@@H](NC(=O)[C@H](CO)NC(=O)[C@H](CCCCN)NC(=O)[C@@H](NC(=O)[C@@H](NC(=O)[C@H](Cc1c[nH]c2ccccc12)NC(=O)[C@H](CCCCN)NC(=O)[C@H](CCCCN)NC(=O)[C@@H](NC(=O)[C@H](CCC(=O)O)NC(=O)[C@H](CCCCN)NC(=O)[C@H](CC(C)C)NC(=O)[C@@H](NC(=O)[C@H](CCCCN)NC(=O)[C@H](CCCNC(=N)N)NC(=O)[C@H](CC(C)C)NC(=O)[C@H](CC(C)C)NC(=O)[C@@H](N)CCCCN)C(C)C)[C@@H](C)O)C(C)C)[C@@H](C)CC)C(C)C)C(C)C)C(=O)N[C@@H](CCCNC(=N)N)C(=O)N[C@@H](CCCCN)C(=O)O [Hesperelin-1] (H-KLLRKVLKETKKWVIKSVVFFKKIRK-OH) | 2000 (≈ 6490 mg/mL) |  |  | 8 |  |
| CC[C@H](C)[C@H](NC(=O)[C@H](CCCCN)NC(=O)[C@H](CC(N)=O)NC(=O)[C@@H](NC(=O)[C@@H](NC(=O)[C@H](Cc1c[nH]c2ccccc12)NC(=O)[C@H](CC(C)C)NC(=O)[C@H](CCC(N)=O)NC(=O)[C@H](CC(C)C)NC(=O)[C@@H](NC(=O)[C@H](C)NC(=O)[C@H](CC(C)C)NC(=O)[C@@H](N)CCCNC(=N)N)[C@@H](C)O)[C@@H](C)O)[C@@H](C)CC)C(=O)N[C@H](C(=O)N[C@@H](CCCCN)C(=O)N[C@@H](CCC(N)=O)C(=O)N[C@@H](CC(C)C)C(=O)N[C@@H](CCSC)C(=O)N[C@H](C(=O)N1CCC[C@H]1C(=O)N[C@@H](CC(C)C)C(=O)N[C@@H](CC(N)=O)C(=O)N[C@@H](CCCCN)C(=O)N1CCC[C@H]1C(=O)NCC(=O)N[C@@H](Cc1c[nH]cn1)C(=O)N[C@@H](CCCCN)C(=O)O)[C@@H](C)CC)[C@@H](C)O [Ararin-2] (H-RLATLQLWTINKITKQLMIPLNKPGHK-OH) | 16000 (≈ 50500 mg/mL) |  |  |  |  |
